Assay [1] addresses T1, human SGLT1 (Homo sapiens, UniProt P13866).
T1 construct: expressed in transfected cells; host or cells: COS-7 cells, transient lipofection of pcDNA3.1(-) vector
T1 sequence (P13866 1-664): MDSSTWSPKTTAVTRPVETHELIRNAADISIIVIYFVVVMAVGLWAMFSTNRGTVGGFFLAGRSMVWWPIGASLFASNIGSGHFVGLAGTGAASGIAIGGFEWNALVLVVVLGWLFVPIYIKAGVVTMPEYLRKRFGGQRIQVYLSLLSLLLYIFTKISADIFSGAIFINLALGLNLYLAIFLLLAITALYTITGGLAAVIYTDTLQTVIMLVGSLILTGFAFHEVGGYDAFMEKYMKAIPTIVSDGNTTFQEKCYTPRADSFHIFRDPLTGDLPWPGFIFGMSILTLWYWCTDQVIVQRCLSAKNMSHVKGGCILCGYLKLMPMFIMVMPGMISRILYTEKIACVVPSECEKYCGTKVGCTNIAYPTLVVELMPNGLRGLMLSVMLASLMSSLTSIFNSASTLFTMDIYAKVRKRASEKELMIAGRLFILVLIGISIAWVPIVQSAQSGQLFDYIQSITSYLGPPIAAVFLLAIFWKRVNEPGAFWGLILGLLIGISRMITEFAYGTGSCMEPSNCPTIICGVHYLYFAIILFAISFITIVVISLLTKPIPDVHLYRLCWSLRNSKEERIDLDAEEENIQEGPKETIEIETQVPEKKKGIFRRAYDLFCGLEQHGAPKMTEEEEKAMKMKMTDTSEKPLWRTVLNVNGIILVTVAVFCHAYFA
Put plainly: Inhibition of methyl-α-D-glucopyranoside uptake in COS-7 cells expressing human SGLT1. It is filed as cell-based. The note with it: 14C α-MG uptake, 1 mM α-MG, transfected COS-7 cells, 1 hour at 37° C.; read-out: hSGLT1 IC50. On the procedure:
(§1) Assay for Inhibitory Effects on Human SGLT Activity
1) Cloning and Construction of the Vector Expressing Human SGLT1
The cDNA library was prepared for PCR amplification by reverse transcription from total RNA derived from human small intestine (Ori gene) using oligo-dT as a primer. Using this cDNA library as a template, the DNA fragment coding 1 to 2005 bp of human SGLT1 (ACCESSION: M24847), which was reported by Hediger et al., was amplified by PCR method and inserted into the multi-cloning site of pcDNA3.1(−) (Invitrogen). The DNA sequence inserted was perfectly matched to the previously reported sequence.
(§2) 3) Preparation of the Cells Expressing Human SGLT1 or SGLT2 […]
(§3) A mixture of non-labeled (Sigma) and ^14C-labeled α-MG (Amersham Pharmacia Biotech) was added to the uptake buffer (pH 7.4; containing 140 mM sodium chloride, 2 mM potassium chloride, 1 mM calcium chloride, 1 mM magnesium chloride, 10 mM 2-[4-(2-hydroxyethyl)-1-piperazinyl]ethane sulfonic acid and 5 mM tris(hydroxymethyl)aminomethane) at the final concentration of 1 mM. […] Radioactivity was measured by means of micro-scintillation counter TopCount (Packard). One hundred % was set to the difference between the uptake in the control group and the basal uptake, and the uptake of methyl α-D-glucopyranoside at each drug concentration was calculated. […]

Assay [2] has as its target T2, human SGLT2 (Homo sapiens, UniProt P31639).
T2 construct: expressed in transfected cells; host or cells: COS-7 cells, transient lipofection of pcDNA3.1(-) vector
T2 sequence (P31639 1-672): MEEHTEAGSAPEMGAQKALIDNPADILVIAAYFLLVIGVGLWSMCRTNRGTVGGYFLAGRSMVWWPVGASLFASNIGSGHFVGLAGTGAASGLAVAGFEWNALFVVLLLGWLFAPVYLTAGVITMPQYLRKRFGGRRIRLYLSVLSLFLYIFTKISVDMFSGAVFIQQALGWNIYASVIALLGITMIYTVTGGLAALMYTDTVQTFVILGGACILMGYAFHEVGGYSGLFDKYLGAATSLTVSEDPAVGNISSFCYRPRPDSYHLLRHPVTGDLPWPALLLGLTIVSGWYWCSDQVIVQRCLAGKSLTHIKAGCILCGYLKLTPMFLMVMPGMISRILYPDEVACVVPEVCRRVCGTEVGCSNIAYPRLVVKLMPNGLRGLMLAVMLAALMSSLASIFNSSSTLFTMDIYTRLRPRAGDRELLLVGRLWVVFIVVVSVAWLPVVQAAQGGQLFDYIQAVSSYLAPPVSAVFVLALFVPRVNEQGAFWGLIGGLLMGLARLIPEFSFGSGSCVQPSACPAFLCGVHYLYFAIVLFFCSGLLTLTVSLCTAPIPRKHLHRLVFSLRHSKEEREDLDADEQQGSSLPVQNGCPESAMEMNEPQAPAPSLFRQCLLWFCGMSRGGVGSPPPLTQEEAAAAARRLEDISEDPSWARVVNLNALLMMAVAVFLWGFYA
Put plainly: Inhibition of methyl-α-D-glucopyranoside uptake in COS-7 cells expressing human SGLT2. The note with it: 14C α-MG uptake, 1 mM α-MG, transfected COS-7 cells, 1 hour at 37° C.; read-out: hSGLT2 IC50. It is filed as cell-based. As to the method:
as §1
2) Cloning and Construction of the Vector Expressing Human SGLT2
The cDNA library was prepared for PCR amplification by reverse transcription from total RNA derived from human kidney (Ori gene) using oligo-dT as a primer. Using this cDNA library as a template, the DNA fragment coding 2 to 2039 bp of human SGLT2 (ACCESSION: M95549, M95299), which was reported by R. G. Wells et al., was amplified by PCR method and inserted into the multi-cloning site of pcDNA3.1(−) (Invitrogen). The DNA sequence inserted was perfectly matched to the previously reported sequence.
as §2, §3

The structures appear in SMILES notation.

We go through 2 compounds from patent US7750145B2, “1-substituted-3-β-D-glucopyranosylated nitrogenous hetero-cyclic compounds and medicines containing the same” (Kissei Pharmaceutical Co., Ltd., priority 2004, dated 2010).

As to `COc1ccc(Cn2cc([C@@H]3O[C@H](CO)[C@@H](O)[C@H](O)[C@H]3O)c3cccc(C)c32)cc1` [Example 6], the IC50 in assay [1] was 83 nM.

Regarding `COc1ccc(Cn2cc([C@@H]3O[C@H](CO)[C@@H](O)[C@H](O)[C@H]3O)c3cc(C)ccc32)cc1` [Example 8], the IC50 in assay [2] was found to be 6 nM.
